What all share (format): biochemical
Assay [1] has as its target CSF1R (Homo sapiens, UniProt P07333). Nature of the assay: HotSpot kinase profiling, CSF1R. Particulars: HotSpot assay, 10 μM ATP. The procedure:
(§1) A study was conducted to determine kinase selectivity of compounds 27 and 67. More specifically, each compound was tested for inhibitory activity of CSF1R kinase, as compared to that of seven other kinases, i.e., Aurora A, Aurora B, tyrosine-protein kinase Kit (c-Kit), fms-like tyrosine kinase 3 (FLT3), platelet-derived growth factor receptor (PDGFR) A, PDGFR B, and discoidin domain receptor tyrosine kinase 1 (DDR1).
(§2) In vitro profiling of the kinase panel was performed at Reaction Biology Corporation (www.reactionbiology.com, Malvern, PA) using the “HotSpot” assay platform. Briefly, specific kinase/substrate pairs along with required cofactors were prepared in a reaction buffer containing 20 mM Hepes pH 7.5, 10 mM MgCl2, 1 mM EGTA, 0.02% Brij35, 0.02 mg/ml BSA, 0.1 mM NA3VO4, 2 mM DTT, and 1% DMSO. Compound 27 or 67 was added. 20 minutes later, a mixture of ATP (Sigma, St. Louis MO) and ^33P ATP (Perkin Elmer, Waltham MA) was added to the resulting reaction solution to give a final concentration of 10 μM. The reaction was carried out at room temperature for 120 min., followed by spotting the reaction solution onto P81 ion exchange filter paper (Whatman Inc., Piscataway, NJ). Unbound phosphate was removed by extensive washing filters in 0.75% phosphoric acid. […] Selectivity, expressed as an IC50 ratio, was determined by dividing the IC50 value of a kinase, e.g., Aurora A, by that of CSF1R.

Assay [2] has as its target tyrosine-protein kinase Kit (c-Kit) (Homo sapiens, UniProt P10721). Put plainly: HotSpot kinase profiling, c-Kit. Particulars: HotSpot assay, 10 μM ATP; IC50 of kinase divided by that of CSF1R. The procedure:
as §1, §2

Assay [3] has as its target Aurora B (Homo sapiens, UniProt Q96GD4). Put plainly: HotSpot kinase profiling, Aurora B. Particulars: HotSpot assay, 10 μM ATP; IC50 of kinase divided by that of CSF1R.
Experimental: In vitro profiling of the kinase panel was performed at Reaction Biology Corporation (www.reactionbiology.com, Malvern, PA) using the “HotSpot” assay platform. Briefly, specific kinase/substrate pairs along with required cofactors were prepared in a reaction buffer containing 20 mM Hepes pH 7.5, 10 mM MgCl2, 1 mM EGTA, 0.02% Brij35, 0.02 mg/ml BSA, 0.1 mM NA3VO4, 2 mM DTT, and 1% DMSO. […] 20 minutes later, a mixture of ATP (Sigma, St. Louis MO) and ^33P ATP (Perkin Elmer, Waltham MA) was added to the resulting reaction solution to give a final concentration of 10 μM. The reaction was carried out at room temperature for 120 min., followed by spotting the reaction solution onto P81 ion exchange filter paper (Whatman Inc., Piscataway, NJ). Unbound phosphate was removed by extensive washing filters in 0.75% phosphoric acid. […] Selectivity, expressed as an IC50 ratio, was determined by dividing the IC50 value of a kinase, e.g., Aurora A, by that of CSF1R.
Assay [4] deals with platelet-derived growth factor receptor (PDGFR) A (Homo sapiens, UniProt P16234). Nature of the assay: HotSpot kinase profiling, PDGFR A. Particulars: HotSpot assay, 10 μM ATP; IC50 of kinase divided by that of CSF1R. The procedure:
as §1, §2

Assay [5] deals with T1, CSF1R kinase (recombinant N-terminal GST-CSF1R, residues L534-C972) (Homo sapiens, UniProt P07333).
T1 construct: Recombinant N-terminal GST-CSF1R (CSF1R residues L534-C972) containing the CSFIR kinase domain; made in house; host or cells: Sf9 insect cells
T1 sequence (P07333 534-972): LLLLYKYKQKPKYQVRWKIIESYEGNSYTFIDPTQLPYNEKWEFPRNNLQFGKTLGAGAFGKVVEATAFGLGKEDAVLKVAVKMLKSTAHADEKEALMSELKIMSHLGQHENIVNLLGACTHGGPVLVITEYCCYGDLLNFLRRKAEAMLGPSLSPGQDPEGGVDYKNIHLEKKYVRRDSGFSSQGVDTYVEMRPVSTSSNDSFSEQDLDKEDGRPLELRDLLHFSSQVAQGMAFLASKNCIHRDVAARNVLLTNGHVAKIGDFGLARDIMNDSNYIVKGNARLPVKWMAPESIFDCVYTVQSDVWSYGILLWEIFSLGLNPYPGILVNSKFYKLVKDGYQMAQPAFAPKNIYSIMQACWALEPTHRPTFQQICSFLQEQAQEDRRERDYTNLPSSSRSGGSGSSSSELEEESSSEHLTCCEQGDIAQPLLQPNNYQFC
Nature of the assay: CSF1R Kinase-Glo assay. Particulars: 40 μM ATP, 30° C. 180 min, read-out: Enzymatic Assay CSF1R enzyme IC50. In short, it runs like this: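 Sf9-expressed, purified GST-CSF1R kinase domain (600 ng) was incubated with compound for 180 min at 30° C. with 40 μM ATP and 20 μM poly(Glu,Tyr) 4:1 at pH 7.4 (Mn2+/Mg2+). Remaining ATP was read by Kinase-Glo Plus luminescence. IC50 was fitted from percentage inhibition versus no-compound controls across a concentration range.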
(In general: Kinase-Glo measures the ATP left after a reaction by luminescence.)

The target of assay [6] is PDGFR B (Homo sapiens, UniProt P09619). Put plainly: HotSpot kinase profiling, PDGFR B. Particulars: HotSpot assay, 10 μM ATP; IC50 of kinase divided by that of CSF1R. The procedure: as §1, §2
Assay [7] concerns the target T2, Aurora A (Homo sapiens, UniProt O14965).
T2 sequence (O14965 1-403): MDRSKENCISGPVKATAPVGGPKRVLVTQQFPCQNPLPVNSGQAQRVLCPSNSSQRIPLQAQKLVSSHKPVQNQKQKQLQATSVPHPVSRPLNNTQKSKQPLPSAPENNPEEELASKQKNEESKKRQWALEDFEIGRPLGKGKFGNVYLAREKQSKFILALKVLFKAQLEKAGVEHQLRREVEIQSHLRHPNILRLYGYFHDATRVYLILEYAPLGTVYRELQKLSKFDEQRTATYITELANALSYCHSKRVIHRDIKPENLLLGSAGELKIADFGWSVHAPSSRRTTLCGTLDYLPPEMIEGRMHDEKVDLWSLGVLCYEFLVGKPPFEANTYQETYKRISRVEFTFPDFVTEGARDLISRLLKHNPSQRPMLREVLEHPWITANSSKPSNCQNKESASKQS
Nature of the assay: HotSpot kinase profiling, Aurora A. Particulars: HotSpot assay, 10 μM ATP; IC50 of kinase divided by that of CSF1R. On the procedure: as §1, §2

Assay [8] addresses discoidin domain receptor tyrosine kinase 1 (DDR1) (Homo sapiens, UniProt Q08345). Nature of the assay: HotSpot kinase profiling, DDR1. Particulars: HotSpot assay, 10 μM ATP; IC50 of kinase divided by that of CSF1R. On the procedure: as §1, §2

Usually IC50 stands for the midpoint of a concentration-inhibition curve.

Where only a bound is given, the exact number is not on record here.

tyrosine-protein kinase Kit (c-Kit), sequence (P10721 26-976): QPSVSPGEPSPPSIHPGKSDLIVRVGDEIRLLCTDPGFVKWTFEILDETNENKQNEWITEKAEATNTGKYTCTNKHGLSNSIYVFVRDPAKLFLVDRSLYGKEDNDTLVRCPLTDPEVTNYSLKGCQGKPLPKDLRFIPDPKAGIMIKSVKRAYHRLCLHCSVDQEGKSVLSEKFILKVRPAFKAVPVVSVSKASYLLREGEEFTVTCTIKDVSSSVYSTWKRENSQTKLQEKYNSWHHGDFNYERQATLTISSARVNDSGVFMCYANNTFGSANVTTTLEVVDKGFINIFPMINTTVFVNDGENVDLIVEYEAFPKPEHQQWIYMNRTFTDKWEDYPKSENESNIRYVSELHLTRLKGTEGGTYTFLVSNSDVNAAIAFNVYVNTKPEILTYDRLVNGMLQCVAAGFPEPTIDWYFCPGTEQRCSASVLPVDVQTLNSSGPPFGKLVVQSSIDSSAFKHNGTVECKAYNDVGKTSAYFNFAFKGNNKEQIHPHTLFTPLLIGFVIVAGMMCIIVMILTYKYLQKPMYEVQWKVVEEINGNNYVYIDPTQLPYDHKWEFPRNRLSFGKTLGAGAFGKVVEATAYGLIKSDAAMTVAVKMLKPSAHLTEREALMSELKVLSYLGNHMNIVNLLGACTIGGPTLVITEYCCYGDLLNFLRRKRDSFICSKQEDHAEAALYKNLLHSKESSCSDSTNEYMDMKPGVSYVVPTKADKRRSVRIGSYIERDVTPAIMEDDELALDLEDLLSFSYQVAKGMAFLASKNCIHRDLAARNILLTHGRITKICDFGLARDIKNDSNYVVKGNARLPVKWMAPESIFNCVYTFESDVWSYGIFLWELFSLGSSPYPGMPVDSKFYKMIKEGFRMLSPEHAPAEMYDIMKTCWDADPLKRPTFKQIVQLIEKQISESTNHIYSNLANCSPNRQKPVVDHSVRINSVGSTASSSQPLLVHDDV
Aurora B, sequence (Q96GD4 whole entry): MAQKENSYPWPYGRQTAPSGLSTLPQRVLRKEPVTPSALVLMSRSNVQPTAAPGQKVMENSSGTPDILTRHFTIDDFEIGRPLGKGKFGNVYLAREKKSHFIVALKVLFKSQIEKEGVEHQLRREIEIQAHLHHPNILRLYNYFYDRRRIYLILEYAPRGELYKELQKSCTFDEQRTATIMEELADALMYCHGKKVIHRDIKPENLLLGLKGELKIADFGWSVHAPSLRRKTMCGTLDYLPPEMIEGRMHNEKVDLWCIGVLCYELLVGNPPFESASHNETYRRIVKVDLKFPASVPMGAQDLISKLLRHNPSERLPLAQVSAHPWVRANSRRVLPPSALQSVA
discoidin domain receptor tyrosine kinase 1 (DDR1), sequence (Q08345 19-913): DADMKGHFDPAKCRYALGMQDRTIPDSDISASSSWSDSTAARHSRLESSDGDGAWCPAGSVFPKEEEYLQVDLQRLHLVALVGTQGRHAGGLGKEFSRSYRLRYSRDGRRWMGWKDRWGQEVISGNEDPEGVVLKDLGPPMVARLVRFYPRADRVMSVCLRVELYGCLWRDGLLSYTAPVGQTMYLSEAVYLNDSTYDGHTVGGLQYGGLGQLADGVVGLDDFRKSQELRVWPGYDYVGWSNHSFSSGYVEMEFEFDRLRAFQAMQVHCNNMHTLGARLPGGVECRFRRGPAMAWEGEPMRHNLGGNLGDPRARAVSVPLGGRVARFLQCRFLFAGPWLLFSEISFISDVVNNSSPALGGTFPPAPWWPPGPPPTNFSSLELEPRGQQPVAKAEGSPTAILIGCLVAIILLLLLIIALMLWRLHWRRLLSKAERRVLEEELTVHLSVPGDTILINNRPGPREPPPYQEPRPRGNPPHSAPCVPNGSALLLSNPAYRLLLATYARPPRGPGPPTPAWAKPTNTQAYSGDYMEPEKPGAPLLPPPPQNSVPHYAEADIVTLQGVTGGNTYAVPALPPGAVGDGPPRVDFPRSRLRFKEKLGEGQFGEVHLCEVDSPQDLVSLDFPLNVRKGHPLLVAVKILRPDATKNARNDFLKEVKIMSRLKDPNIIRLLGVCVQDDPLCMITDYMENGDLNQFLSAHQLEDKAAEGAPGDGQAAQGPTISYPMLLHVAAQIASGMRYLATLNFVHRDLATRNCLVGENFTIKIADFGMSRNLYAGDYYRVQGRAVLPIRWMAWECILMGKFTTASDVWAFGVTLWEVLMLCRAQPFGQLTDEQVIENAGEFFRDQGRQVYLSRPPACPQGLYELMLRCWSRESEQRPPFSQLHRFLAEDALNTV
platelet-derived growth factor receptor (PDGFR) A, sequence (P16234 24-1089): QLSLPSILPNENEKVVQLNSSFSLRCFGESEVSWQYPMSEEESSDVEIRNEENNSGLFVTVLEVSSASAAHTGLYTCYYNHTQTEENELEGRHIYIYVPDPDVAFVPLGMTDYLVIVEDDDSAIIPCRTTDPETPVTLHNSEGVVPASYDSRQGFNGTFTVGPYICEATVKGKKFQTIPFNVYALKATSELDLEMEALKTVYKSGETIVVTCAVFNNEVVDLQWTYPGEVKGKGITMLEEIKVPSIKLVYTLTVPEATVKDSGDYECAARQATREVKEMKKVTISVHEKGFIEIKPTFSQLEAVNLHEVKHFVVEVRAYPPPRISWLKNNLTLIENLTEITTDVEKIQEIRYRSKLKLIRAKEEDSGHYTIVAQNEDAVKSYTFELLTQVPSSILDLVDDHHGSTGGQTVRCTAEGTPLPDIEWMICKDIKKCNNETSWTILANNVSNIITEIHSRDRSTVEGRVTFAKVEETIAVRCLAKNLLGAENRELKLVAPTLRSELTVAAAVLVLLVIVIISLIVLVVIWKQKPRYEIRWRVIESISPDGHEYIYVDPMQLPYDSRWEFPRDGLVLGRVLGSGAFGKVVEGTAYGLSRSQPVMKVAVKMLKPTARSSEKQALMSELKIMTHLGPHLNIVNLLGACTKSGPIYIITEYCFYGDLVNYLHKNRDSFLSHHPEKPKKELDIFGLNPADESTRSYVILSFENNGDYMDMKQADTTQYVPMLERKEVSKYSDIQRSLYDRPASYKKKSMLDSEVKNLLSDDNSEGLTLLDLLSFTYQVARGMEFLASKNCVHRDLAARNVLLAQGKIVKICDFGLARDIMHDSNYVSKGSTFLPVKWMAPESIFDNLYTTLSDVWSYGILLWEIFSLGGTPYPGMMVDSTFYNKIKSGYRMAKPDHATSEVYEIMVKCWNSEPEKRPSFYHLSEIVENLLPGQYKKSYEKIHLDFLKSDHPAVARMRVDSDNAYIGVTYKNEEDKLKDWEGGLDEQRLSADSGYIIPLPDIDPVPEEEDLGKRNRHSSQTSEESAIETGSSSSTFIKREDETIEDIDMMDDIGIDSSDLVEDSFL
CSF1R, sequence (P07333 20-972): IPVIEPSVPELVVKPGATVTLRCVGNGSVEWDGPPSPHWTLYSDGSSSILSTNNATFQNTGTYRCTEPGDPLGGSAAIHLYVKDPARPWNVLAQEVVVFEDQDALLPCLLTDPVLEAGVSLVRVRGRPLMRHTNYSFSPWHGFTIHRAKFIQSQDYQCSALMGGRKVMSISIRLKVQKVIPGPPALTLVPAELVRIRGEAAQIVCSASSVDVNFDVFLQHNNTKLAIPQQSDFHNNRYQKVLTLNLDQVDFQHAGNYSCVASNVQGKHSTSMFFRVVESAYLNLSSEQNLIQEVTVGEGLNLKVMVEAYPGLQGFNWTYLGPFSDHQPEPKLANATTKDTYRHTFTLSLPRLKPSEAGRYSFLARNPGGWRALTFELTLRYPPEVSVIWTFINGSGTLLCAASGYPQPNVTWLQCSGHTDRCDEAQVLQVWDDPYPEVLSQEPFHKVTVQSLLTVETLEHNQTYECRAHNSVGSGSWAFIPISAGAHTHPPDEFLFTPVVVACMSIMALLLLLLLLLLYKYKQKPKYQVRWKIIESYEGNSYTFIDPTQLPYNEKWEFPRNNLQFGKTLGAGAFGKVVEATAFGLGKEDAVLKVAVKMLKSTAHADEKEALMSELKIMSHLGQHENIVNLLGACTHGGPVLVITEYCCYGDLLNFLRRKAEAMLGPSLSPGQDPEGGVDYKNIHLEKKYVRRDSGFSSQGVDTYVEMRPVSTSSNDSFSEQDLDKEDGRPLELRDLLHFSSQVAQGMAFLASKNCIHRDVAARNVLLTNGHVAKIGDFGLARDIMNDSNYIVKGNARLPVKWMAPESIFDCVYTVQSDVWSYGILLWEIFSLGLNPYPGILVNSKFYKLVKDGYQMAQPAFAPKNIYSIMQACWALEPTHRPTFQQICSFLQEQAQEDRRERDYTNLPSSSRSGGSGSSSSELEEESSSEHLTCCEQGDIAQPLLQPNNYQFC

As for `CN(C)c1ccc2c(Oc3ccc4c(ccn4C(=O)NCc4ccc(C(F)(F)F)nc4)c3)ncnc2c1` [Compound 67, 5-((7-(dimethylamino)quinazolin-4-yl)oxy)-N-((6-(trifluoromethyl)pyridin-3-yl)methyl)-1H-indole-1-carboxamide], the results for the IC50 in assay [1] and in assay [5] were 5.69 nM and 20 to 100 nM, respectively. The “IC50 ratio c-Kit / CSF1R” value in assay [2] was “+++ (+++: 1000 > IC50 ratio > 100)”. In addition, in assay [3], the “IC50 ratio Aurora B / CSF1R” value was “+++ (+++: 1000 > IC50 ratio > 100)”. Besides, in assay [4], the “IC50 ratio PDGFR A / CSF1R” value is listed as “++ (++: 100 > IC50 ratio > 10)”. Besides, the “IC50 ratio PDGFR B / CSF1R” value in assay [6] was “+++ (+++: 1000 > IC50 ratio > 100)”. In assay [7], the “IC50 ratio Aurora A / CSF1R” value is reported as “+++ (+++: 1000 > IC50 ratio > 100)”. Also, in assay [8], the “IC50 ratio DDR1 / CSF1R” value is “+ (+: 10 > IC50 ratio > 1)”.
As for `CN(C)c1ccc2c(Oc3ccc(NC(=O)NCc4ccc(C(F)(F)F)nc4)cc3)ncnc2c1` [Compound 27, 1-(4-((7-(dimethylamino)quinazolin-4-yl)oxy)phenyl)-3-((6-(trifluoromethyl)pyridin-3-yl)methyl)urea], the IC50 in assay [1] was 0.534 nM; in assay [5], under 20 nM. The “IC50 ratio c-Kit / CSF1R” value in assay [2] is “++ (++: 100 > IC50 ratio > 10)”. Also, in assay [3], the “IC50 ratio Aurora B / CSF1R” value is “+++ (+++: 1000 > IC50 ratio > 100)”. Moreover, the “IC50 ratio PDGFR A / CSF1R” value in assay [4] is on record as “++ (++: 100 > IC50 ratio > 10)”. Further, in assay [6], the “IC50 ratio PDGFR B / CSF1R” value is recorded as “++ (++: 100 > IC50 ratio > 10)”. Besides, the “IC50 ratio Aurora A / CSF1R” value in assay [7] is “++++ (++++: IC50 ratio > 1000)”. In addition, the “IC50 ratio DDR1 / CSF1R” value in assay [8] is “+++ (+++: 1000 > IC50 ratio > 100)”.

Source of the values: US12668584B2, “Heterocyclic compounds as kinase inhibitors for therapeutic uses” (National Health Research Institutes, priority 2019, dated 2026).
